Reference: ChEMBL document CHEMBL4825724, “Synthesis and biological evaluation of platensic alcohol as an adamantane surrogate in antitumor drug lead adaphostin” (Bioorg Med Chem Lett, 2021)
pIC50: −log10 of the molar value. ≈ marks a conversion by molar mass, not a printed value. Calls of active or inactive are those of the source. No cut-off for these calls is given here.

Tests used:
[1] = Cytotoxicity against human KPL-4 cells assessed as cell growth inhibition measured after 72 hrs by CCK8 assay; type: functional, cell-based; details: KPL4, 72 h
Jurkat [2] = experiment: Induction of ROS generation in human Jurkat cells at 5 uM measured after 4 hrs by DCFH-DA staining based flourescence assay relative to H2O2; type: functional, cell-based
Jurkat [3] = experiment: Induction of ROS generation in human Jurkat cells at 1 uM measured after 2 hrs by DCFH-DA staining based flourescence assay relative to H2O2; type: functional, cell-based
Jurkat [4] = experiment: Induction of ROS generation in human Jurkat cells assessed as increase in intracellular ROS level measured after 4 hrs in presence of vorinostat; type: functional, cell-based
Jurkat [5] = experiment: Antagonistic cytotoxicity against human Jurkat cells assessed as decrease in cell viability at 0.1 to 25 uM measured after 72 hrs in presence of vorinostat; type: functional, cell-based; details: dose 0.1-25 µM
A549 = experiment: Cytotoxicity against human A549 cells assessed as cell growth inhibition measured after 72 hrs by CCK8 assay; type: functional, cell-based; details: A549, 72 h
Jurkat [6] = experiment: Cytotoxicity against human Jurkat cells assessed as cell growth inhibition measured after 72 hrs by CCK8 assay; type: functional, cell-based
Caco-2 = experiment: Cytotoxicity against human Caco-2 cells assessed as cell growth inhibition measured after 72 hrs by CCK8 assay; type: functional, cell-based; details: Caco-2, 72 h
[7] = Half life in human serum incubated up to 24 hrs by HPLC analysis; type: ADME, cell-free
Staphylococcus aureus = experiment: Antibacterial activity against methicillin-resistant Staphylococcus aureus; type: functional

SMILES: CC12CC34CC[C@H](OC(=O)c5ccc(NCc6cc(O)ccc6O)cc5)[C@@](C)(CCCOC(=O)c5ccc(NCc6cc(O)ccc6O)cc5)C3C(CC1C4)O2 (stereo not given in full)
- pIC50 [1]: 5.11
- Activity (Jurkat [2]): Active
- Activity (Jurkat [3]): Active
- Activity (Jurkat [4]): Active
- Activity (Jurkat [5]): Active
- pIC50 (A549): 5.02
- pIC50 (Jurkat [6]): 5.30
- pIC50 (Caco-2): 5.15
- half-life [7]: 12 h

SMILES: CC12CC34C=CC(=O)[C@@](C)(CCC(=O)NNC(=O)c5ccc(NCc6cc(O)ccc6O)cc5)C3C(CC1C4)O2 (stereo not given in full)
- pIC50 [1]: < 4.00
- pIC50 (A549): < 4.00
- pIC50 (Jurkat [6]): < 4.00
- pIC50 (Caco-2): 4.19

SMILES: C[C@@]1(CCC(=O)Nc2c(O)ccc(C(=O)O)c2O)C(=O)C=CC23CC4CC(CC(C4)C21)C3 (stereo not given in full)
- MIC (Staphylococcus aureus): 1.3 µg/mL (≈ 2.96 µM)

SMILES: O=C(OC12CC3CC(CC(C3)C1)C2)c1ccc(NCc2cc(O)ccc2O)cc1
- pIC50 [1]: 5.34
- Activity (Jurkat [3]): Active
- Activity (Jurkat [5]): inactive
- pIC50 (A549): 4.70
- pIC50 (Jurkat [6]): 5.51
- pIC50 (Caco-2): 5.10
- half-life [7]: 12 h

SMILES: C[C@]12C[C@@]34C=CC(=O)[C@@](C)(CCC(=O)Nc5c(O)ccc(C(=O)O)c5O)[C@@H]3[C@H](C[C@@H]1C4)O2
- MIC (Staphylococcus aureus): 0.2 µg/mL (≈ 0.453 µM)

SMILES: O=C(NNC(=O)C12CC3CC(CC(C3)C1)C2)c1ccc(NCc2cc(O)ccc2O)cc1
- pIC50 [1]: < 4.00
- pIC50 (A549): < 4.00
- pIC50 (Jurkat [6]): 4.80
- pIC50 (Caco-2): < 4.00

SMILES: CC12CC34CC[C@H](O)[C@@](C)(CCCO)C3C(CC1C4)O2 (stereo not given in full)
- pIC50 [1]: 5.57
- pIC50 (A549): 4.44
- pIC50 (Jurkat [6]): 5.14
- pIC50 (Caco-2): 4.43
- half-life [7]: 5 h

SMILES: COC(=O)c1ccc(NCc2cc(O)ccc2O)cc1
- pIC50 [1]: 4.81
- pIC50 (A549): 4.63
- pIC50 (Jurkat [6]): 4.88
- pIC50 (Caco-2): 4.82
- half-life [7]: 3 h

SMILES: O=C(O)c1ccc(NCc2cc(O)ccc2O)cc1
- pIC50 [1]: < 4.00
- pIC50 (A549): < 4.00
- pIC50 (Jurkat [6]): 4.69
- pIC50 (Caco-2): 4.30
